Measured values: EP4813381A1, “PHARMACEUTICAL USE OF GUAIANE SESQUITERPENE DERIVATIVE” (Nanjing University Of Chinese Medicine, priority 2023, dated 2025)

Columns and labels:
[1] = Water solubility testing of compounds (HPLC); settings: deionized water, 37 °C water bath
MDSCs and T cells = assay: T cell proliferation in a co-culture model of MDSCs and T cells (flow cytometry); format: cell-based, mice; settings: MDSCs treated with 1 µM compound for 12 h, 48 h co-culture with T cells (1:1), compared to the control group
Description: Under sterile conditions, the tibia was removed, both ends of the bone were cut, and bone marrow was repeatedly flushed into a 15 mL centrifuge tube using a 1 mL syringe filled with culture medium. Centrifuge at 1600 rpm for 5 min to collect bone marrow cells. […] The spleen cell suspension was then transferred into a 15 mL centrifuge tube. Centrifuge at 1600 rpm for 5 min to collect T cells. Wash twice with 1×PBS. Resuspend the centrifuged T cells in 1 mL PBS and add 1 mL of 10 µM CFDA-SE solution. Incubate at room temperature for 8 min. […] After drug administration, collect MDSC cells into centrifuge tubes. Centrifuge at 1600 rpm for 5 min, remove supernatant, resuspend in 1 mL fresh medium, and plate. Add 1 mL stimulated activated T cells (1:1 ratio) for 48 h co-culture. After incubation, collect cells into centrifuge tubes, wash twice with PBS, and incubate with Fc antibody at room temperature in the dark for 10 min. Add CD3-labeled flow cytometry antibody and incubate at 4 °C in the dark for 30 min. After incubation, wash cells with PBS, resuspend in 300 µL PBS, and analyze by flow cytometry.

[2] = test system: renal injury markers (Ngal, Havcr1), inflammatory cytokines (TNF, IL-6, IL-1), fibrosis-related factors (α-Sma, Col1a1, Tgfb1); assay: Folic acid acute kidney injury model in mice: Q-PCR of kidney tissue; format: in vivo, C57BL/6 mice; settings: kidney mRNA, acute model (FA)
[3] = Conversion rate of salt-form prodrugs to parent compound in HEPES buffer solution; format: physicochemical; settings: conversion to Compound 1, HEPES buffer pH 7.4, 37 °C
Description: Adjust the pH to 7.4 using 0.5 M NaOH, then dilute to a final volume 100 mL with distilled water.
(§1) Sample Analysis: Dissolve 0.6 mg of the compound in 250 µl of deionized water separately. Add 250 µl of mouse serum or HEPES 7.4 solution to the sample, incubate at a constant temperature of 37 °C, and collect samples at different time points. Pipette 20 µl of the sample to an EP tube, add 60 µl of methanol, vortex to mix thoroughly, and centrifuge at 12,000 rpm at 4 °C for 10 min. At 1 h, 2 h, 4 h, 8 h, and 12 h respectively, collect the supernatant for HPLC analysis. Inject 10 µL of sample and record the corresponding peak areas.

[4] = Conversion rate of salt-form prodrugs to parent compound in mouse plasma; format: in vitro ADME; settings: conversion to Compound 1, mouse plasma, 37 °C
Description: Pharmaceutically acceptable salts of guaiane-type sesquiterpene lactone derivatives were selected and evaluated for their conversion rates to Compound 1 and Compound 83 in plasma and HEPES buffer, with results shown in Tables 2-1, 2-2, 3-1, and 3-2.
Plasma Preparation: Collect mouse plasma into an EP tube pre-loaded with sodium heparin, centrifuge at 8000 rpm for 10 minutes at 4°C, and then collect the supernatant.
as §1, with “areas. Chromatographic conditions: Hanbang C18 column (4.6 × 250 mm, 5 µm); mobile phase: acetonitrile: […] ammonium formate solution = 60:40; flow rate 1.0 mL/min; detection wavelength 210 nm; column temperature 30 °C. [drawing 171] Table 2-1. Conversion Rate of Compounds 20-42 to Compound 1 at Different Time Points in HEPES Buffer Solution” for “areas.”

[5] = test system: chronic kidney injury induced by unilateral ureteral ligation; assay: Unilateral ureteral ligation (UUO) chronic kidney injury model in mice: Scr and BUN; format: in vivo, C57BL/6 mice; settings: serum, 14 days

Structure (SMILES) | Water-solubility [1] [µg/mL] | T-cell proliferation rate (%) (MDSCs and T cells) | further results
C[C@@]12CC[C@@H]3[C@H](OC(=O)[C@H]3CN3CCCCCCC3)[C@@H]3[C@]1(CC[C@@]3(C)O)C2 [compound 19] | 623 | – | –
C[C@@]12CC[C@@H]3[C@H](OC(=O)[C@H]3CN3CCC4(CC3)CC4)[C@@H]3[C@]1(CC[C@@]3(C)O)C2 [compound 18] | 584 | – | –
C=C1C(=O)O[C@H]2[C@H]1CCC(C)=C1CC[C@@](C)(OC(=O)NCCN3CCOCC3)[C@@H]12 [compound 98] | 202500 | + (T-cell proliferation rate within the 0-20% range compared to the control group) | –
CCOC(=O)[C@@H]1CCCN1C[C@@H]1C(=O)O[C@H]2[C@H]1CC[C@@]1(C)C[C@]13CC[C@@](C)(O)[C@H]23 [compound 4] | 822 | ++ (T-cell proliferation rate within the 20-40% range compared to the control group) | –
C[C@@]12CC[C@@H]3[C@H](OC(=O)[C@H]3CN3CC4CCCC4C3)[C@@H]3[C@]1(CC[C@@]3(C)O)C2 (stereo partly shown) [compound 13] | 419 | – | –
CCCN(CCC)C[C@@H]1C(=O)O[C@H]2[C@H]1CC[C@@]1(C)C[C@]13CC[C@@](C)(O)[C@H]23 [compound 10] | 715 | – | –
C[C@@]12CC[C@@H]3[C@H](OC(=O)[C@H]3CN3CCC4(CCCC4)CC3)[C@@H]3[C@]1(CC[C@@]3(C)O)C2 [compound 15] | 310 | – | –
CN(C)C[C@@H]1C(=O)O[C@H]2[C@H]1CC[C@@]1(C)C[C@]13CC[C@@](C)(O)[C@H]23 [compound 21] | – | – | α-Sma ([2]; oral 0.1 mg/kg): 1.80±0.42; α-Sma ([2]; oral 1 mg/kg, 1 mg/kg): 0.90±0.21; Release rate ([3]; 1 h): 3.3%; Release rate ([3]; 2 h): 10.2%; Release rate ([3]; 4 h): 18.1%; Release rate ([3]; 8 h): 38.9%; Release rate ([3]; 12 h): 51.9%; Release rate ([4]; 1 h): 5.4%; Release rate ([4]; 2 h): 10.7%; Release rate ([4]; 4 h): 17.9%; Release rate ([4]; 8 h): 39.3%; Release rate ([4]; 12 h): 55.4%; BUN ([5]; oral gavage 0.1 mg/kg): 17.63±1.13; Scr ([5]; oral gavage 0.1 mg/kg): 157.79±21.92; BUN ([5]; oral gavage 1 mg/kg, 1 mg/kg): 9.45±1.55; Scr ([5]; oral gavage 1 mg/kg, 1 mg/kg): 79.87±13.44
C=C1C(=O)O[C@H]2[C@H]1CCC(C)=C1CC[C@@](C)(OC(=O)N3CCC(N4CCOCC4)CC3)[C@@H]12 [compound 94] | – | ++ (T-cell proliferation rate within the 20-40% range compared to the control group) | –
CCCCN(CCCC)C[C@@H]1C(=O)O[C@H]2[C@H]1CC[C@@]1(C)C[C@]13CC[C@@](C)(O)[C@H]23 [compound 11] | 682 | – | –
CN(C)C[C@@H]1C(=O)O[C@H]2[C@H]1CC[C@@]1(C)C[C@]13C[C@@H](O)[C@@](C)(O)[C@H]23 [compound 60] | – | + (T-cell proliferation rate within the 0-20% range compared to the control group) | –
CC1=C2[C@H]3OC(=O)[C@@H](CN(C)C)[C@@H]3CC[C@@]3(C)C[C@@]23CC1 [compound 62] | – | + (T-cell proliferation rate within the 0-20% range compared to the control group) | –
C=C1C(=O)O[C@H]2[C@H]1CCC(C)=C1CC[C@@](C)(OC(=O)NCCCN3CCOCC3)[C@@H]12 [compound 92] | – | ++ (T-cell proliferation rate within the 20-40% range compared to the control group) | –
CCC(=O)O[C@]1(C)CC[C@@]23C[C@]2(C)CC[C@@H]2[C@H](CC(=O)[C@H]2CN(C)C)[C@H]31 [compound 63] | – | + (T-cell proliferation rate within the 0-20% range compared to the control group) | –
C=C1C(=O)O[C@H]2[C@H]1CCC(C)=C1CC[C@@](C)(OC(=O)N3CCC(C)CC3)[C@@H]12 [compound 84] | – | ++ (T-cell proliferation rate within the 20-40% range compared to the control group) | –
C=C1C(=O)O[C@H]2[C@H]1CCC(C)=C1CC[C@@](C)(OC(=O)NCCCN3CCN(C)CC3)[C@@H]12 [compound 93] | – | ++ (T-cell proliferation rate within the 20-40% range compared to the control group) | –
CC1CCN(C[C@@H]2C(=O)O[C@H]3[C@H]2CC[C@@]2(C)C[C@]24CC[C@@](C)(O)[C@H]34)CC1 [compound 43] | – | + (T-cell proliferation rate within the 0-20% range compared to the control group) | –
C[C@@]12CC[C@@H]3[C@H](OC(=O)[C@H]3CN3CCNCC3)[C@@H]3[C@]1(CC[C@@]3(C)O)C2 [compound 7] | 1488 | – | –
C=C1C(=O)O[C@H]2[C@H]1CCC(C)=C1CC[C@@](C)(OC(=O)NCCCO)[C@@H]12 [compound 72] | – | ++ (T-cell proliferation rate within the 20-40% range compared to the control group) | –
CN(C)C[C@@H]1C(=O)O[C@H]2[C@H]1CC[C@@]1(C)C[C@]13CC[C@@](C)(O)[C@H]23 [compound 2] | – | ++ (T-cell proliferation rate within the 20-40% range compared to the control group) | –
C=C1C(=O)O[C@H]2[C@H]1CCC(C)=C1CC[C@@](C)(OC(=O)N(CC)CC)[C@@H]12 [compound 81] | – | ++ (T-cell proliferation rate within the 20-40% range compared to the control group) | –
C=C1C(=O)O[C@H]2[C@H]1CCC(C)=C1CC[C@@](C)(OC(=O)N3CCCC3)[C@@H]12 [compound 82] | – | + (T-cell proliferation rate within the 0-20% range compared to the control group) | –
C=C1C(=O)O[C@H]2[C@H]1CCC(C)=C1CC[C@@](C)(OC(=O)NCC(C)C)[C@@H]12 [compound 88] | – | ++ (T-cell proliferation rate within the 20-40% range compared to the control group) | –
C=C1C(=O)O[C@H]2[C@H]1CCC(C)=C1CC[C@@](C)(OC(=O)NCCCOC)[C@@H]12 [compound 75] | – | ++ (T-cell proliferation rate within the 20-40% range compared to the control group) | –
C=C1C(=O)O[C@H]2[C@H]1CCC(C)=C1CC[C@@](C)(OC(=O)N(C)C)[C@@H]12 [compound 80] | – | ++ (T-cell proliferation rate within the 20-40% range compared to the control group) | –
C=C1C(=O)O[C@H]2[C@H]1CCC(C)=C1CC[C@@](C)(OC(=O)NCC)[C@@H]12 [compound 65] | – | + (T-cell proliferation rate within the 0-20% range compared to the control group) | –
